Results published in article PMC5566973 (Frontiers in Pharmacology, 2017).

Tests used:
[1] = system: MRP2; assay: in vitro; conditions: human, Caco-2, ER, Caco-2, 2 μM
Description: (§1) Caco-2, MDCK and MDCK-MRP2 cells were donated by Prof. Yan Xie and Yueming Ma from Shanghai University of Traditional Chinese Medicine. The cells were grown in culture dishes (Corning® Costar, Cambridge, MA, USA) using DMEM supplemented with 10% FBS, 1% NEAA and 1% penicillin-streptomycin solution. The cells were cultured in 5% CO2 and […] with 90% relative humidity at 37°C. The medium was replaced every other day during incubation. The cells were passaged every 3–4 days between 70 and 80% confluence at a 1:5 split ratio using 0.25% trypsin-EDTA. For the transport experiments, the cells from passages between 30 and 45 were seeded at 1 × 10^5 cells/cm^2 onto permeable polycarbonate inserts (0.45 μm pore size, seeding surface of 0.6 cm^2, Millipore, MA, USA) in 24-well plastic plates. The media in the culture plates were changed every other day for the first week after seeding and were replaced daily afterward. […] The cells were used for the transport experiments 21–28 (Caco-2) or 5–7 (MDCK and MDCK-MRP2) days after seeding, and only monolayers with a TEER-value above 420 Ω cm^2 were used during the studies.
(§2) The apical (AP) and basolateral (BL) sides are typical of polarized Caco-2, MDCK and MDCK-MRP2 epithelial cells. Before the experiments, the polarized cell monolayers were washed twice with warm HBSS solution and subsequently preincubated (37°C, 30 min). Afterward, HBSS solution on both sides of the cell monolayers was removed using a mini desktop vacuum pump. […] The final DMSO concentration in the HBSS or drug mixture was below 0.5%. The monolayers were incubated at 37°C, and 100 μL samples were taken at 30, 60, 90, and 120 min from the acceptor compartment and immediately replaced with the same volume of prewarmed fresh blank HBSS. TEER measurements for assessing the membrane integrity took place before and after the experiments.
(§3) The apparent permeability coefficients (Papp) and ER were calculated as Equations (2) and (3): […]
(§4) where dQ/dt is the steady-state flux, A is the membrane surface area, and C0 is the initial drug concentration in the donor compartment. PappBA is the Papp-value measured in BL to AP direction and PappAB is the Papp-value measured in AP to BL direction. It indicated the involvement of an active transport process when the ER-value is above 1.5 (Hubatsch et al., [2007]).

[2] = system: OATPs; assay: in vitro; conditions: human, Caco-2, ER, Caco-2, 2 μM, + ES 0.05 mM (OATPs)
Description: as §1, §2, §3, §4

[3] = system: MDCK cell monolayers; assay: in vitro; conditions: 2 μM
Description: as §1, §2, §3, §4

[4] = system: Caco-2 cell monolayers; assay: in vitro
Description: as §1, §2, §3, §4

[5] = system: PEPT1; assay: in vitro; conditions: human, Caco-2, ER, Caco-2, 2 μM, + Gly-Sar 10 mM (PEPT1)
Description: as §1, §2, §3, §4

[6] = system: BCRP; assay: in vitro; conditions: human, Caco-2, ER, Caco-2, 2 μM
Description: as §1, §2, §3, §4

[7] = system: Na+/K+-ATPase; assay: in vitro; conditions: human, Caco-2, 2 μM, + Sodium vanadate 0.05 mM (Na^+)
Description: as §1, §2, §3, §4

[8] = system: MDR1; assay: in vitro; conditions: human, Caco-2, ER, Caco-2, 2 μM
Description: as §1, §2, §3, §4

[9] = Cytotoxicity CCK-8 assay in MDCK cells; format: cell-based, canine; conditions: dog, MDCK cells, up to 25 μM, 12 h incubation, read-out: Cell viability
Description: (§5) In brief, the cells were seeded on 96-well plates at 1 × 10^5 cells/mL and cultured in 100 μL of culture medium at incubator for 24 h. […] After 12 h incubation, 10 μL of CCK-8 dye was added to each well, and cells were incubated for another 2 h. Cell viability (%) was calculated using the following Equation (1):
(§6) (1) Cell viability (%)=(ODsample−ODblank)/ (ODcontrol−ODblank) ×100%
(§7) ODsample refers to the absorbance of a well with treated cells and CCK-8. ODblank refers to the absorbance of a well with medium and CCK-8 but without cells. ODcontrol refers to the absorbance of a well with untreated cells and CCK-8. The absorbance at 450 nm was measured by a microplate reader (Biotek Instrument; Gene Co., Ltd., VT, USA), and the results are presented as mean ± SD from triplicate wells.

[10] = system: MDCK cells; assay: Cytotoxicity CCK-8 assay in MDCK cells; format: cell-based, canine; conditions: CCK-8
Description: as §5, §6, §7

[11] = Control (pH 7.4, 37°C, without EDTA)
[12] = with EDTA 5 mM, listed as harmaline
[13] = Caco-2, 2 μM, + Apigenin 0.025 mM (BCRP)
[14] = Caco-2, 2 μM, + Cimetidine 0.05 mM (OATs)
[15] = Caco-2, 2 μM, + ES 0.05 mM (OATPs)
[16] = Caco-2, 2 μM, + Gly-Sar 10 mM (PEPT1)
[17] = Caco-2, 2 μM, + Ko143 0.01 mM (BCRP)
[18] = Caco-2, 2 μM, + MK571 0.05 mM (MRP2)
[19] = Caco-2, 2 μM, + NaN3 10 mM (ATP)
[20] = Caco-2, 2 μM, + Phloretin 0.3 mM (MCTs)
[21] = Caco-2, 2 μM, + Phloridzin 0.5 mM (SGLT1)
[22] = Caco-2, 2 μM, + Probenecid 0.2 mM (MRP2)
[23] = Caco-2, 2 μM, + Quinidine 0.1 mM (MDR1)
[24] = Caco-2, 2 μM, + TEA 5 mM (OCTs/OCTNs)
[25] = Caco-2, 2 μM, + Verapamil 0.1 mM (MDR1)
[26] = Caco-2, 2 μM, Control (no inhibitor or substrate)
[27] = Caco-2, 2 μM, Control (pH 7.4, 37°C, without EDTA)

COc1ccc2c3c([nH]c2c1)C(C)=NCC3 [Harmaline]
efflux ratio ([1]; + MK571 0.05 mM (MRP2)): 0.93
efflux ratio ([1]; + Probenecid 0.2 mM (MRP2)): 0.96
efflux ratio [2]: 1.12
PappAB at 37°C relative to 4°C [3]: 3.77 folds
PappAB at pH 7.4 relative to pH 5.5 [3]: 1.56 folds
PappAB ([3]; 4°C): 5.40 ± 0.99^*** 1 × 10^−6 cm/s
PappBA ([3]; 4°C): 6.65 ± 0.64^*** 1 × 10^−6 cm/s
PappAB [3, 11]: 20.36 ± 1.82 1 × 10^−6 cm/s
PappBA [3, 11]: 21.03 ± 2.11 1 × 10^−6 cm/s
PappAB ([3]; with EDTA 5 mM): 29.43 ± 1.45^* 1 × 10^−6 cm/s
PappBA ([3]; with EDTA 5 mM): 26.34 ± 0.93^* 1 × 10^−6 cm/s
PappAB [3, 12]: 29.43 ± 1.45 1 × 10^−6 cm/s
PappBA [3, 12]: 26.34 ± 0.93 1 × 10^−6 cm/s
PappAB at pH 7.4 relative to pH 5.5 ([4]; Caco-2, 2 μM): 3.65 folds
PappAB ([4]; Caco-2, 2 μM, 4°C): 7.59 ± 0.33^*** 1 × 10^−6 cm/s
PappAB ([4]; Caco-2, 2 μM, 4°C, listed as harmaline): 7.59 ± 0.33 1 × 10^−6 cm/s
Modulatory effect [4, 13]: −
PappAB [4, 13]: 27.85 ± 2.09 1 × 10^−6 cm/s
PappBA [4, 13]: 26.04 ± 1.43 1 × 10^−6 cm/s
Modulatory effect [4, 14]: −
PappBA [4, 14]: 26.16 ± 1.79 1 × 10^−6 cm/s
Modulatory effect [4, 15]: +
PappAB [4, 15]: 24.33 ± 0.49 1 × 10^−6 cm/s
PappBA [4, 15]: 26.41 ± 0.94 1 × 10^−6 cm/s
Modulatory effect [4, 16]: −
PappAB [4, 16]: 27.73 ± 0.95 1 × 10^−6 cm/s
PappBA [4, 16]: 26.31 ± 1.18 1 × 10^−6 cm/s
Modulatory effect [4, 17]: −
PappBA [4, 17]: 26.15 ± 0.48 1 × 10^−6 cm/s
Modulatory effect [4, 18]: −
PappAB [4, 18]: 27.90 ± 1.31 1 × 10^−6 cm/s
PappBA [4, 18]: 25.82 ± 0.71 1 × 10^−6 cm/s
Modulatory effect [4, 19]: +
PappAB [4, 19]: 22.75 ± 2.68^* 1 × 10^−6 cm/s
PappBA [4, 19]: 26.18 ± 1.02 1 × 10^−6 cm/s
Modulatory effect [4, 20]: −
PappAB [4, 20]: 27.77 ± 2.14 1 × 10^−6 cm/s
PappBA [4, 20]: 26.25 ± 0.91 1 × 10^−6 cm/s
Modulatory effect [4, 21]: −
PappAB [4, 21]: 27.57 ± 2.40 1 × 10^−6 cm/s
PappBA [4, 21]: 26.07 ± 1.60 1 × 10^−6 cm/s
Modulatory effect [4, 22]: −
PappAB [4, 22]: 27.22 ± 1.04 1 × 10^−6 cm/s
PappBA [4, 22]: 26.10 ± 1.02 1 × 10^−6 cm/s
Modulatory effect [4, 23]: −
PappAB [4, 23]: 27.54 ± 1.35 1 × 10^−6 cm/s
PappBA [4, 23]: 26.44 ± 1.47 1 × 10^−6 cm/s
Modulatory effect ([4]; Caco-2, 2 μM, + Sodium vanadate 0.05 mM (Na^+)): +
Modulatory effect [4, 24]: +
PappBA [4, 24]: 26.75 ± 1.58 1 × 10^−6 cm/s
Modulatory effect [4, 25]: −
PappAB [4, 25]: 27.32 ± 1.33 1 × 10^−6 cm/s
PappBA [4, 25]: 25.68 ± 1.55 1 × 10^−6 cm/s
PappAB [4, 26]: 27.48 ± 0.18 1 × 10^−6 cm/s
PappBA [4, 26]: 26.19 ± 4.02 1 × 10^−6 cm/s
PappAB [4, 27]: 27.72 ± 1.06 1 × 10^−6 cm/s
PappBA [4, 27]: 26.42 ± 0.49 1 × 10^−6 cm/s
PappAB ([4]; Caco-2, 2 μM, with EDTA 5 mM): 35.23 ± 2.68^* 1 × 10^−6 cm/s
PappBA ([4]; Caco-2, 2 μM, with EDTA 5 mM): 39.57 ± 2.10^* 1 × 10^−6 cm/s
PappAB ([4]; Caco-2, initial concentration 2 μM): 27.72 ± 1.06 1 × 10^−6 cm/s
ER-values at the tested concentrations ([4]; Caco-2 and MDCK, 1, 2, and 5 μM): < 1.5
efflux ratio [5]: 0.95
efflux ratio ([6]; + Apigenin 0.025 mM (BCRP)): 0.94
efflux ratio ([6]; + Ko143 0.01 mM (BCRP)): 0.93
efflux ratio ([7]; Caco-2, ER): 1.27
Papp B→A ([7]; Caco-2, PappBA): 26.9 ± 1.26 ×10⁻⁶ cm/s
efflux ratio ([8]; + Quinidine 0.1 mM (MDR1)): 0.96
efflux ratio ([8]; + Verapamil 0.1 mM (MDR1)): 0.94
viability at 12 h [9]: > 90%
concentration without toxicity or decreased cell viability [10]: up to 25 μM
drug concentration producing notable toxicity [10]: higher than 100 μM
